These are literature values, as cited in patent US20060247203A1, “Freeze-dried preparation containing methylcobalamin and process for producing the same” (EISAI CO., LTD., priority 2003, published 2006).

In the data set the test system is patients with amyotrophic lateral sclerosis. The following applies: ALS patients; methylcobalamin 15 to 50 mg/once daily via intramuscular injection.

Consider `C/C1=C2/[N-][C@H]([C@H](CC(N)=O)[C@@]2(C)CCC(=O)NC[C@@H](C)OP(=O)([O-])O[C@H]2[C@@H](O)[C@@H](n3cnc4cc(C)c(C)cc43)O[C@@H]2CO)[C@]2(C)N=C(/C(C)=C3N=C(/C=C4N=C1[C@@H](CCC(N)=O)C\4(C)C)[C@@H](CCC(N)=O)[C@]\3(C)CC(N)=O)[C@@H](CCC(N)=O)[C@]2(C)CC(N)=O.[CH3-].[Co+3]` [methylcobalamin], for which the “magnitude of compound muscle action potential” value is “significant increase” and the subjective muscle strength result is recorded as “dose-dependent improvement”.
